According to patent US20030069295A1, “Use of histamine H3 receptor inverse agonists for the control of appetite and treatment of obesity” (Gliatech, Inc., priority 2001, published 2003):
Where two headings read alike, the source gives them in different places.

Key:
[1] = target: T1, Histamine H3 receptor (Rattus norvegicus, UniProt Q9QYN8); assay: Histamine H3 receptor binding analysis, [3H]-Nα-methylhistamine competition in rat cerebral cortical membranes, with and without GTPγS; details: for Ki Ratio (−/+): Ki without GTPγS / Ki with GTPγS; for remaining activity at 30 pM: 0.03 nM of compound; for remaining activity at 30 pM / remaining activity at 0.0001 µM / remaining activity at 0.0003 µM / remaining activity at 0.001 µM / remaining activity at 0.003 µM / remaining activity at 0.01 µM / remaining activity at 0.03 µM / remaining activity at 0.1 µM / remaining activity at 0.3 µM / remaining activity at 1 µM: read-out: percent of [3H]-Nα-methylhistamine bound (mean); for remaining activity at 0.0001 µM: 0.1 nM of compound; for remaining activity at 0.0003 µM: 0.3 nM of compound; for remaining activity at 0.001 µM: 1 nM of compound; for remaining activity at 0.003 µM: 3 nM of compound; for remaining activity at 0.01 µM: 10 nM of compound; for remaining activity at 0.03 µM: 30 nM of compound; for remaining activity at 0.1 µM: 100 nM of compound; for remaining activity at 0.3 µM: 300 nM of compound; for remaining activity at 1 µM: 1000 nM of compound
T1 construct: The cerebral cortical tissues were harvested and frozen on dry ice; from tissue; host or cells: cerebral cortex membranes of male Sprague-Dawley rats
Experimental: A histamine H3 receptor binding analysis to determine the affinity of various imidazole derivatives for G-protein uncoupled receptors was performed as follows. […] Animals were acclimated to laboratory conditions for a minimum of one week prior to tissue harvesting.
Animals were anesthetized by NO2 inhalation and euthanized by rapid decapitation. The cerebral cortical tissues were harvested and frozen on dry ice. Rat corticies were mechanically homogenized using a Tissue Tearer in 25 mM Tris buffer (pH 7.5 at 4° C.) containing: EDTA (10 mM), phenylmethylsulfonyl fluoride (0.1 mM), chymostatin and leupeptin (each 0.2 mg/50 mL). The homogenate was centrifuged in a Sorvall centrifuge at 40,000×g for 30 minutes. The pellet was re-suspended in 25 ml water and lysed on ice for 30 minutes. The homogenate was then re-centrifuged and the membrane lysis was repeated. The membranes were centrifuged and the final membrane pellets were resuspended in 14 volumes of water to yield approximately 200 μg protein/100 μl final concentration. The suspension was stored frozen at −80° C. prior to use. Protein concentrations were determined using the Coomassie Plus Protein Assay (available from Pierce of Rockford, Ill.).
GTPγS causes dissociation of G-protein from receptors. Data are shown as percent of [^3H]-N^α-methylhistamine bound (mean) for each table.

[2] = test system: Sprague-Dawley rats; assay: Food intake study in Sprague-Dawley rats; format: in vivo, rat; details: two hours after intraperitoneal administration; result in words
Experimental: The compounds summarized in Table 3 were examined for their ability to suppress food consumption by adult Sprague-Dawley rats. Male Sprague Dawley rats were purchased from Harlan Laboratories of Indianapolis, Ind. Rats were housed one per cage and maintained on a 12 hour light/dark schedule (lights-out at 12:30 p.m.) with ad libitum access to powdered Teklad Mouse/Rat Diet 7012 (available from Harlan Laboratories of Indianapolis, Ind.) and water. Rats were acclimated to laboratory conditions and food for 1 to 2 weeks prior to initiating food intake studies. On the day of experiments, test compounds were solubilized or suspended in vehicle/carrier and administered to rats (i.p. or p.o.) 30 to 60 minutes prior to the onset of the dark cycle. Food intake was determined at 1, 2, 4, and 24 hours following the onset of the dark cycle. Alternatively, rats were fasted (water provided) for 24 hours prior to evaluating the effects of compounds on food intake. For these studies, compounds or vehicle/carrier were administered and rats were placed in standard small animal metabolism chambers with ad ibitum access to powdered Teklad Mouse/Rat Diet 7012 and water. Food intake was determined at 2 and 4 hours following the onset of feeding.
Data is cumulative food intake in grams, mean±sem. In the table, * indicates a significant decrease in food intake compared to the vehicle-treated rats (t-test, p<0.05).
(§1) The percent reduction in food intake by rats two hours after intraperitoneal administration of each compound is shown in Table 5. […] In Table 5, * indicates a significant decrease in food intake compared to the vehicle-treated rats (t-test, p<0.05). The ex vivo binding values in Table 5 represent the drug dose required to obtain ½-maximal H3 receptor occupancy in the brain following intraperitoneal administration. The dose values shown in Table 5 represent the dosage of drug utilized during the food intake studies. In all cases, the tested dose exceeded the amount needed to obtain ½-maximal H3 receptor occupancy in the brain.

[3] = target: T2, H3 receptor (Rattus norvegicus, UniProt Q9QYN8); assay: Ex vivo binding: H3 receptor occupancy in the brain following intraperitoneal administration
T2 construct: ½-maximal H3 receptor occupancy in the brain following intraperitoneal administration; from tissue; host or cells: brain of dosed animals
Source text: as §1

[4] = GTPγS-treated receptor preparation (G-protein uncoupled), read-out: Ki (+) GTPγS
[5] = untreated receptor preparation (mixture of coupled and uncoupled H3 receptors), read-out: Ki (−) GTPγS

T1 sequence (Q9QYN8 whole entry): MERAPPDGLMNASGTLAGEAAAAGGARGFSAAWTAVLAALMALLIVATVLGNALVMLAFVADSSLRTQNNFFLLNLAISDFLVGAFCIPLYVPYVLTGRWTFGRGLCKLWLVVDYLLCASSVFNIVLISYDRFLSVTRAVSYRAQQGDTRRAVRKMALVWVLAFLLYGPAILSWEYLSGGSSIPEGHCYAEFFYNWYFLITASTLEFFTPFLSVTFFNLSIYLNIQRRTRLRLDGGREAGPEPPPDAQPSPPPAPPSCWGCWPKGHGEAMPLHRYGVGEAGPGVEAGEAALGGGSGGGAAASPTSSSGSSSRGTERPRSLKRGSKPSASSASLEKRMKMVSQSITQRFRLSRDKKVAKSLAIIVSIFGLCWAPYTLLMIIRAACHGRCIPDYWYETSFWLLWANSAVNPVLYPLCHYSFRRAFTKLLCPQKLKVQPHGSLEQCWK
T2 sequence (Q9QYN8 whole entry): as above

## CC(C)(C)CCC#C[C@@H]1C[C@H]1c1c[nH]cn1 [Compound 6, (1R,2R)-trans-4-(2-(5,5-dimethylhex-1-ynyl)cyclopropyl) imidazole]
[1]; [4]
  Ki: 0.24 nM
[1]
  Ki Ratio (−/+): 1.7
[1]; [5]
  Ki: 0.41 nM
[2]
  effect on food consumption by rats: no measurable effect
[3]
  Ex Vivo Binding (drug dose required to obtain ½-maximal H3 receptor occupancy in the brain): 0.08 ± 0.03 mg/kg

## O=C(CCCCC1CCCCC1)N1CCC(c2c[nH]cn2)CC1 [Compound 5, 4-(N-(5-cyclohexylpentan-1-one-1-yl)piperidin-4-yl)imidazole]
[3]
  Ex Vivo Binding (drug dose required to obtain ½-maximal H3 receptor occupancy in the brain): 8.0 ± 1.3 mg/kg

## O=C(N[C@@H]1C[C@H]1c1c[nH]cn1)OCc1c(Cl)cccc1Cl [Compound 7, 4-((1R,2R)-trans-2-(O-(2,6-dichlorophenylmethyl)carboxamido)cyclopropyl)imidazole]
[1]; [4]
  Ki: 2.3 nM
[1]
  Ki Ratio (−/+): 1.5
[1]; [5]
  Ki: 3.4 nM
[2]
  effect on food consumption by rats: no measurable effect
[3]
  Ex Vivo Binding (drug dose required to obtain ½-maximal H3 receptor occupancy in the brain): 2.9 ± 1.3 mg/kg

## C(=C/CCC1CCCCC1)/CCc1c[nH]cn1 [Compound 2, (3Z)-4-(6-cyclohexylhex-3-en-1-yl)imidazole]
[1]; Tris-GTPγS
  remaining activity at 30 pM: 98.3%
  remaining activity at 0.0001 µM: 107%
  remaining activity at 0.0003 µM: 103%
  remaining activity at 0.001 µM: 91.1%
  remaining activity at 0.003 µM: 77.4%
  remaining activity at 0.01 µM: 54.8%
  remaining activity at 0.03 µM: 26.2%
  remaining activity at 0.1 µM: 10.7%
  remaining activity at 0.3 µM: 4.4%
  remaining activity at 1 µM: 3.4%
[1]; Tris
  remaining activity at 30 pM: 98.5%
  remaining activity at 0.0001 µM: 96.7%
  remaining activity at 0.0003 µM: 96.7%
  remaining activity at 0.001 µM: 99.2%
  remaining activity at 0.003 µM: 88.7%
  remaining activity at 0.01 µM: 60.1%
  remaining activity at 0.03 µM: 32.6%
  remaining activity at 0.1 µM: 13.5%
  remaining activity at 0.3 µM: 4.5%
  remaining activity at 1 µM: 0.4%
[1]; [4]
  Ki: 3.6 nM
[1]
  Ki Ratio (−/+): 1.3
[1]; result in words
  binding to GTPγS-treated cortical membrane preparation compared with non-treated preparation: relatively little difference in binding
[1]; [5]
  Ki: 4.6 nM
[2]
  effect on food consumption by rats: no measurable effect
[3]
  Ex Vivo Binding (drug dose required to obtain ½-maximal H3 receptor occupancy in the brain): 0.92 ± 0.01 mg/kg

## Fc1ccc(C(OCCCc2c[nH]cn2)c2ccc(F)cc2)cc1 [Compound 8, 3-(1H-imidazol-4-yl)propyl-di(p-fluorophenyl)-methyl ether]
[1]; [4]
  Ki: 7.8 nM
[1]
  Ki Ratio (−/+): 2.3
[1]; [5]
  Ki: 18.2 nM
[3]
  Ex Vivo Binding (drug dose required to obtain ½-maximal H3 receptor occupancy in the brain): 5.6 ± 0.12 mg/kg
